Patent US20230241205A1, “SARS-COV-2 IMMU[…] AND USES THEREOF” (TScan Therapeutics, Inc., priority 2020, published 2023)

Legend:
Type in all cases: cell-based, human
[1] = system: memory CD8+ T cells of convalescent COVID-19 patients; target cells expressing only HLA-A*03:01; conditions: share of screened convalescent patients whose memory CD8+ T cells recognised the epitope; allele A*03
[2] = system: memory CD8+ T cells of convalescent COVID-19 patients; target cells expressing only HLA-A*02:01; conditions: of 9 HLA-A*02:01 patients
OC43 and HKU1 = experiment: T-Scan screen, reactivity to corresponding epitopes in OC43 and HKU1 ORFeomes; conditions: COVID-19 patient memory CD8+ T cells

| Substance | patients in whom epitope or region was identified / recognized [2] | reactivity to corresponding epitopes in OC43 and HKU1 (OC43 and HKU1) | also measured |
| --- | --- | --- | --- |
| KCYGVSPTKY |  |  | % of Pts (Screen) [1]: 100% |
| ORF1ab aa 3881-3900: 20-aa segment of SARS-CoV-2 ORF1ab recognized in the T-Scan screen | 7 of 9 |  |  |
| S aa 261-280: 20-aa segment of SARS-CoV-2 S protein recognized in the T-Scan screen | 7 of 9 |  |  |
| KLWAQCVQL |  | do not recognize them |  |
| SPRWYFYYL |  | all four of the patients |  |
